Test results: US20160289280A1, “Fusion protein of recombinant ganoderma immunoregulatory protein and human serum albumin, preparation method thereof, and application thereof” (priority 2013, published 2016)
Marks after values point to notes of the source that are not given here.

Experiments:
[1] = tested on: mouse transplanted tumor S180; experiment: subcutaneous inhibition of mouse transplanted tumor S180; type: in vivo; settings: positive control 20 mg·kg^−1, abdominally injected
Protocol: In vivo experiment: experimental material: mice weighing 18-22 g from Laboratory Animal Center of Jilin University; Ehrlich ascites tumor cell strains are provided by a lab of the inventor; cytoxan (CTX) is from Jiangsu Hengrui Medicine Co., Ltd, whose batch number is 06101921; 5180 ascites tumor and soild tumor experimental groups respectively comprises a normal control group, a negative control group, a positive control group, an rLZ-8 low-dosage group (0.25 mg·kg^−1), an rLZ-8 middle-dosage group (0.5 mg·kg^−1), an rLZ-8 high-dosage group (1 mg·kg^−1), an rLZ-8-HSA low-dosage group (0.25 mg·kg^−1), an rLZ-8-HSA middle-dosage group (0.5 mg·kg^−1), and an rLZ-8-HSA high-dosage group (1 mg·kg^−1), wherein dosages of the rLZ-8-HSA groups are judged from LZ-8 dosage, wherein each group comprises 10 mice.
tumor inhibition rate (%)=(average tumor weight of control groups−average tumor weight of experimental groups)/average tumor weight of control groups×100%.

[2] = tested on: mouse melanoma cells B16-F10; experiment: mouse B16-F10 transplanted tumor model, in situ tumor weight; type: in vivo; settings: 2.5 mg/kg, 5 days, again after 3 weeks, 28 day cycle
Protocol: In vivo experiment: firstly, establishing a mouse tumor mould, wherein mouse melanoma cells B16-F10 is cultured with the DMEM comprising 10% fetal calf serum at 37° C. in a CO2 incubation device; slowly subcutaneously injecting 200 μl B16-F10 cell suspension (comprising 1×10^7 cells) with a 1 ml injector at mouse dorsal-ventral skin, so as to establish a mouse transplanted tumor mould.

platelets = experiment: treatment of mouse thrombocytopenia caused by cyclophosphamide, platelet count; type: in vivo
Protocol: Experimental medicine: preparing a 19.25 μg·kg^−1 and a 9.625 μg·kg^−1 dosage groups of the recombinant ganoderma immunoregulatory protein (rLZ-8) with sterile injection water, and 0.2 ml per mouse; and preparing a 19.25 μg·kg^−1 and a 9.625 μg·kg^−1 dosage groups (judging from the LZ-8) of the fusion protein rLZ-8-HSA of the recombinant ganoderma immunoregulatory protein.
Positive control medicine: thrombopoietin (THPO) from Shenyang 3SBio Inc., with a dosage of 770 μg·kg^−1/d and 0.2 ml per mouse.
Chemotherapy medicine: cyclophosphamide (Cy) from Jiangsu Hengrui Medicine Co., Ltd, whose batch number is 12112121, 200 mg/bottle; preparing into 100 mg·kg^−1, 0.2 ml per mouse with sterile injection water.
Platelet dilution: urea: 1.3 g; sodium citrate: 0.5 g; formaldehyde: 0.1 ml; adding distilled water to 100 ml for mixing, then filtering for further utilization.
Experimental method: dividing experimental animals into 5 groups, wherein each group comprises 10 mice with 5 males and 5 females; except for a normal control group (injected with normal saline having an equal volume), abdominally injecting the cyclophosphamide to the mice with a dosage of 100 mg·kg^−1, 0.2 ml per mouse per day, and lasting for three days; when a platelet quantity decreased to below 300×10^9/L, subcutaneously injecting the rLZ-8, the fusion protein rLZ-8-HAS (19.25 μg·kg^−1, 9.625 μg·kg^−1, 0.2 ml·per mouse per day) and the positive medicine (THPO 770 μg·kg^−1, 0.2 ml·per mouse per day) according to the above groups with corresponding dosages, and injecting the normal saline having the equal volume to the normal control group and a CP group; respectively sampling mouse tail vein blood 3 d, 7 d and 14 d after treatment, counting platelets with high power lens, wherein results thereof are listed in table 7.

mouse spleen cells = experiment: promotion of mouse spleen cell proliferation, WST-1 method; type: cell-based; settings: for OD450, promotion of cell proliferation: 24 h, x ± s, n = 9; for promotion of spleen cell proliferation compared with rLZ-8: same protein concentration
Protocol: Testing effects of the fusion proteins on mouse spleen cell proliferation by a WST-1 method, which illustrates strength of biological activity, wherein according to the present invention, BALB/c female mice are used, whose weight is controlled at 20-22 g; executing the mice by stretching necks thereof, taking out spleens under a sterile condition, and putting into a plate with 5 ml DMEM comprising 10% calf serum; cracking the spleens with tweezers, filtering tissue suspension with gauze for removing tissue blocks, and preparing cell suspension of spleen cells; adding 100 μl the tissue suspension into 900 μl 2% glacial acetic acid for counting with a microscope; adjusting a cell concentration to 5×10^6/ml with DMEM comprising 2% calf serum; respectively preparing the fusion proteins and the rLZ-8 with same molar concentration gradient, wherein there are 3 gradient concentrations, each concentration occupies 9 wells with 100 μl per well; adding tissue suspension with a concentration of 5×10^6/ml with 100 μl per well; shaking for evenly mixing, and then putting into a 37° C., 5% CO2 incubation device to incubate for 24 h; after incubation, adding WST-1 with 20 μl per well; putting into the 37° C., 5% CO2 incubation device to incubate for 3 h, then testing OD450 (with a BIO-RAD); wherein results are listed in table 1.

leukocytes = experiment: treatment of rat models with leucopenia caused by cyclophosphamide, leukocyte count; type: in vivo; settings: positive medicine 13.5 μg/ml, 0.1 ml per rat
Text: Utilizing Wistar rats in the experiments, wherein 18 rats weighing about 100 g are utilized. […] The experiment has an rLZ-8 low-dosage group, an rLZ-8 middle-dosage group, an rLZ-8 high-dosage group, an rLZ-8-HSA low-dosage group, an rLZ-8-HSA middle-dosage group, an rLZ-8-HSA high-dosage group, and a positive medicine control group (utilizing the […]®). […] On the third day, the blood is sampled from the tail vein, and the leukocytes are counted by a cytoanalyzer. After successful modeling, the rats of each the group are respectively treated with the rLZ-8, the three kinds of the fusion proteins, or the positive medicine (the […]®) with the corresponding dosage, and the equal sterile saline is given to the rats of the normal control and a CP group. The blood is sampled from the tail vein on the first, third and seventh treatment days, and the leukocytes are counted by the cytoanalyzer. Medicine efficacy is analyzed according to a number difference of the leukocyte between before and after the treatment.

[3] = 770 μg·kg^−1 subcutaneously per day

O=P1(N(CCCl)CCCl)NCCCO1 (stereo not drawn) [CTX, cyclophosphamide, reference compound]
Inhibition rate [1]: 64.3% | tumor weight [1]: 0.36 ± 0.02 g

CN(C)/N=N/c1[nH]cnc1C(N)=O [dacarbazine, reference compound]
tumor inhibition rate [2]: 62.57 ± 0.27% | tumor weight [2]: 0.52 ± 0.12 g

THPO: thrombopoietin (THPO) from Shenyang 3SBio Inc., positive control medicine [reference compound]
platelets after (platelets; 770 μg·kg^−1 group, after cyclophosphamide, before treatment): 284 ± 0.19 *10^9/L | platelets before (platelets; 770 μg·kg^−1 group, baseline before cyclophosphamide): 851 ± 0.34 *10^9/L | platelets 3rd day (platelets; [3]): 390 ± 0.38 *10^9/L | platelets 7th day (platelets; [3]): 420 ± 0.32 *10^9/L | platelets 14th day (platelets; [3]): 689 ± 0.65 *10^9/L

rLZ-8-Fc4: fusion protein of ganoderma immunoregulatory protein (LZ-8) and human IgG4Fc fragment, SEQ ID NO. 3
OD450, promotion of cell proliferation (mouse spleen cells; protein 5.0 × 10^−9 mol/L): 0.452 ± 0.43 | OD450, promotion of cell proliferation (mouse spleen cells; protein 10.0 × 10^−9 mol/L): 0.840 ± 0.27 | OD450, promotion of cell proliferation (mouse spleen cells; protein 15.0 × 10^−9 mol/L): 0.929 ± 0.21 | promotion of spleen cell proliferation compared with rLZ-8 (mouse spleen cells): significantly decreased

B1: rLZ-8-Fc1: fusion protein of ganoderma immunoregulatory protein (LZ-8) and human IgG1Fc fragment, SEQ ID NO. 2 (protein)
chain: RPSDTALIFRLAWDVKKLSFDYTPNWGRGNPNNFIDTVTFPKVLTDKAYTYRVAVSGRNLGVKPSYAVESDGSGKVNFLEYNSGYGIADTNTIGVFVVDPDTNNDFIIAGWNGGGGSSEPKSCDKTHTCPPCPAPELLGGPSVFLFPPKPKDTLMISRTPEVTCVVVDVSHEDPEVKFNWYVDGVEVHNAKTKPREEGYNSTYRVVSVLTVLHGDWLNGKEYKCKVSNKALPAPIEKTISKAKGGPREPGVYTLPPSREEMTKNGVSLTCLVKGFYPSDIAVEWESNGGPENNYKTTPPVLDSDGSFFLYSKLTVDKSRWGGGNVFSCSVMHEALHNHYTGKSLSLSPGK
modifications: rLZ-8-Fc1 sequence
OD450, promotion of cell proliferation (mouse spleen cells; protein 5.0 × 10^−9 mol/L): 0.543 ± 0.26 | OD450, promotion of cell proliferation (mouse spleen cells; protein 10.0 × 10^−9 mol/L): 0.937 ± 0.29 | OD450, promotion of cell proliferation (mouse spleen cells; protein 15.0 × 10^−9 mol/L): 1.114 ± 0.31 | promotion of spleen cell proliferation compared with rLZ-8 (mouse spleen cells): significantly decreased

B2: GenLei ® Scimax ®: recombinant human granulocyte colony-stimulating factor injection (rhG-CSF), positive medicine (protein, UniProt P09919 31-207, looked up)
Granulocyte …: TPLGPASSLPQSFLLKCLEQVRKIQGDGAALQEKLVSECATYKLCHPEELVLLGHSLGIPWAPLSSCPSQALQLAGCLSQLHSGLFLYQGLLQALEGISPELGPTLDTLQLDVADFATTIWQQMEELGMAPALQPTQGAMPAFASAFQRRAGGVLVASHLQSFLEVSYRVLRHLAQP
leukocyte number on the first treatment day (leukocytes): 6.4e+09 L⁻¹ | leukocyte number on the seventh treatment day (leukocytes): 1.117e+10 L⁻¹ | leukocyte number on the third treatment day (leukocytes): 1.183e+10 L⁻¹ | leukocyte number before (leukocytes; baseline after CP modeling, before treatment): 4.55e+09 L⁻¹
